Assay results from US20100249017A1, “USE OF CNP-22, ALONE OR IN COMBINATION WITH PHYSALEMIN, AS A THERAPEUTIC AGENT” (priority 2007, published 2010).
Square brackets hold non-standard residues; d marks the D form. Ends that are not written are not given here. pGlu = O=C1CC[C@@H](C(=O)O)N1

How the values were obtained:
[1] = test system: Primary Human endothelial cells (HUVEC); experiment: Endothelial cell migration assay; type: cell-based; settings: 10 micrograms per ml, 22 hours
Experimental: Thereafter, designated concentration of testing peptides—10 micrograms per ml—was added in duplicate wells.

HUVEC = experiment: Endothelial tube formation assay; type: cell-based, human; settings: 10 micrograms per ml, 20 hours
Description: Positive control was vehicle only. […] Raw data were expressed as average tubule lenghs in pixels±standard deviation.

HCMV strain AD169 = experiment: HCMV plaque formation assay in MRC-5 cells; settings: 10 micrograms per ml, 7-10 days
Description: Cells were split twic a week 1:2.
Ganciclovir was used as positive control.

RAW 264.7 cells = experiment: Phagocytosis assay; settings: 10 micrograms per ml, Fluorescein-labeled Escherichia coli
[2] = test system: spleen cells of Ovalbumin-immunized Balb/c mice; experiment: Th1/Th2 cytokine profiling assay; type: cell-based, mouse; settings: 10 micrograms per ml; Ovalbumin restimulation; 72 hours
Description: The Balb/c mice (originated in 1923, it is a popular strain and is used in many different research disciplines. Also classified as an inbred from the production of 20 or more successive brother-sister matings, the Balb/c mouse is albino and small in size) were immunized on Days 1, 15, and 29 with Ovalbumin (Ovalbumin is the main protein found in egg white, commonly used to stimulate an immunological reaction in test animals) in PBS (5 micrograms/injection). On day 50, spleens of the mice were harvested (3 weeks after last boost with Ovalbumin). Cells were cultured (2×10^5/well in triplicate) and incubated with culture medium or test peptides—10 micrograms per ml—for 30 min. Thereafter, additional Ovalbumin was added to the cells at 10 micrograms/ml for in vitro restimulation of the cells. 72 hours later, cell supernatants were harvested and assayed using the Becton Dickinson Mouse Th1/Th2 Cytokine CBA Kit.

[3] = test system: hepatitis B virus (HBV) ayw strain; experiment: HBV experimental assay system, secreted HBV DNA by TaqMan PCR; type: cell-based; settings: 10 micrograms per ml; HepG2-2.2.15 cells; six days

Pyr-Ala-Asp-Pro-Asn-Lys-Phe-Tyr-Gly-Leu-Met-NH2 ([pGlu]ADPNKFYGLM-NH2; SMILES CSCC[C@H](NC(=O)[C@H](CC(C)C)NC(=O)CNC(=O)[C@H](Cc1ccc(O)cc1)NC(=O)[C@H](Cc1ccccc1)NC(=O)[C@H](CCCCN)NC(=O)[C@H](CC(N)=O)NC(=O)[C@@H]1CCCN1C(=O)[C@H](CC(=O)O)NC(=O)[C@H](C)NC(=O)[C@@H]1CCC(=O)N1)C(N)=O) [peptide 2]
induction of the migration of human endothelial cells [1]: 15% | inhibition of the tube formation of human endothelial cells (HUVEC): 6% | inhibition of HCMV plaque formation as compared to the virus control experiment (HCMV strain AD169): did not show any inhibition | induction of phagocytosis as compared to the virus control experiment (RAW 264.7 cells): did not induce phagocytosis | IFNγ spleen cells; TH1 response (% of control) [2]: 74.2 % of control | IL-2 spleen cells (% of control) [2]: 0.0 % of control | IL-4 spleen cells; TH2 response (% of control) [2]: 0.0 % of control | IL-5 spleen cells; TH2 response (% of control) [2]: 53.0 % of control | TNF-a spleen cells; TH1 response (% of control) [2]: 85.7 % of control | inhibition of HBV replication as compared to the virus control infection [3]: no effect

Gly-Leu-Ser-Lys-Gly-Cys-Phe-Gly-Leu-Lys-Leu-Asp-Arg-Ile-Gly-Ser-Met-Ser-Gly-Leu-Gly-Cys-OH (GLSKGCFGLKLDRIGSMSGLGC-OH; cysteine pairing not given here) [peptide 1]
inhibition of the tube formation of human endothelial cells (HUVEC): 22% | inhibition of HCMV plaque formation as compared to the virus control experiment (HCMV strain AD169): did not show any inhibition | induction of phagocytosis as compared to the virus control experiment (RAW 264.7 cells): 42.9% | IFNγ spleen cells; TH1 response (% of control) [2]: 140.2 % of control | IL-2 spleen cells (% of control) [2]: 52.2 % of control | IL-4 spleen cells; TH2 response (% of control) [2]: 0.0 % of control | IL-5 spleen cells; TH2 response (% of control) [2]: 56.3 % of control | TNF-a spleen cells; TH1 response (% of control) [2]: 111.8 % of control | inhibition of HBV replication as compared to the virus control infection [3]: 10.1%
